Measured values as given in patent US20230241188A1 (priority 2020, published 2023).
Like-named read-outs stand apart in the source and are kept apart here.

Columns and labels:
[1] = biological target: SARS-CoV-2 (2019-nCoV) Envelope Recombinant Protein (Severe acute respiratory syndrome coronavirus 2, UniProt P0DTC4); assay type: biochemical
envelope protein = envelope protein (Severe acute respiratory syndrome coronavirus 2, UniProt P0DTC4); assay type: biochemical, SARS-CoV-2
[2] = tested on: wild-type (WT) SARS-CoV-2 strain (EPI_ISL_578176); assay type: cell-based
[3] = tested on: SARS-COV-2 R209112 strain; assay type: cell-based
[4] = tested on: SARS-COV-2 R209112 strain; assay: SARS-CoV-2 inactivation test, Vero cells, optical microscope observation; assay type: cell-based
[5] = tested on: SARS-COV-2 R209112 strain
[6] = biological target: Recombinant SARS-CoV-2 spike protein (Severe acute respiratory syndrome coronavirus 2, UniProt P0DTC2); assay type: biochemical

Chain of envelope protein (P0DTC4 whole entry): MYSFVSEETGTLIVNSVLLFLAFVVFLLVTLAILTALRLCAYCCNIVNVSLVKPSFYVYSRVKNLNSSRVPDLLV
Chain of SARS-CoV-2 (2019-nCoV) Envelope Recombinant Protein (P0DTC4 whole entry): as above

## Bromelain
BGM cells
  TOXICITY (optical microscope observation): Nil
Vero cells
  TOXICITY (optical microscope observation): Nil

## CC(=O)N[C@@H](CS)C(=O)O [Acetylcysteine, acetylcysteine]
[1]
  envelope protein band on SDS-PAGE gel: did not disintegrate the protein
Envelope protein
  differential assay between Acetylcysteine and DTT (slope ratio): 60%
  disulphide bonds reduced by Acetylcysteine before the addition of DTT: 40%
BGM cells
  TOXICITY (optical microscope observation): Nil
[2]
  viral inhibition (CPE, optical and Neutral Red cell staining): no viral inhibition
[3]
  effect (cytopathic effect at 7 days), in words: did not show any effect
  optical microscope observation of SARS-CoV-2 infection, V1: +
  optical microscope observation of SARS-CoV-2 infection, V2: +
  optical microscope observation of SARS-CoV-2 infection, V3: -
  optical microscope observation of SARS-CoV-2 infection, V4: -
  optical microscope observation of SARS-CoV-2 infection, V5: -
[4]
  optical microscope observation of SARS-CoV-2 infection, V1: +
  optical microscope observation of SARS-CoV-2 infection, V2: +
  optical microscope observation of SARS-CoV-2 infection, V3: - and +
  optical microscope observation of SARS-CoV-2 infection, V4: -
  optical microscope observation of SARS-CoV-2 infection, V5: -
  therapeutic effect (cytopathic effect at 5 days), in words: did not show any therapeutic effect
Vero cells
  TOXICITY (optical microscope observation): Nil
[5]
  viral inactivation test (RNA extraction), Δlog, V1: 0.088 log
  viral inactivation test (RNA extraction), Δlog, V2: 0.224 log
[6]
  comparative reduction of disulphide bonds, DTT alone vs DTT with Acetylcysteine (slope ratio): 42%
  disulphide linkages reduced by Acetylcysteine: 58%
